Test results taken from patent publication US20050142626A1, “Diagnostic methods for asthma” (priority 1999, published 2005).

Tests used:
[1] = test system: eosinophil peroxidase-H2O2—Br− system; assay: 3-Bromotyrosine formation in BSA incubated with activated phagocytes (eosinophils); type: cell-based; conditions: BSA with phorbol ester activated cells, plasma levels of bromide
Protocol: Reactions were initiated by addition of oxidant (H2O2, HOBr, N-bromo or N,N-dibromo amine) and performed in sodium phosphate buffer (pH 7.0) at 37° C. for 60 min. Proteins oxidized in vitro were prepared for analysis by first precipitating and desalting them in a single-phase extraction mixture comprised of H2O:methanol:H2O-saturated diethyl ether (1:3:7, v:v:v) as described in Hazen, S. L., Hsu, F. F., Gaut, J. P., Crowler, J. R. and Heinecke, J. W. “Modification of Proteins and Lipids by Myeloperoxidase-Derived Oxidants” In: Methods of Enzymology, Edited by Lester Packer, Vol. 300, pp. 88-106. Academic Press, Inc., San Diego. 1999, followed by acid hydrolysis in methane sulfonic acid. […]
L-Tyrosine, 3-bromotyrosine and 3,5-dibromotyrosine generated by phagocytes and human tissues were quantified by stable isotope dilution GC/MS in the negative-ion chemical ionization mode. n-Propyl, per heptafluorobutyryl (HFB) derivatives of amino acids were prepared by standard methods and analyzed on a Perkin Elmer TurboMass mass spectrometer equipped with chemical ionization probe. […] 3-Bromotyrosine was monitored as its n-propyl per HFB derivative using two structurally informative fragment ions, m/z 573 (M-HF)^− and m/z 445 (M-CF3CF2CHO)^− and their corresponding isotopically labeled [^13C6] internal standard ions at m/z 579 and 451, respectively. […]

[2] = Chemical stability of L-tyrosine oxidation products (Peaks I and II) of the EPO-H2O2-Br- system; conditions: to acid, peroxide, reductants and nucleophilic compounds; prolonged incubation at 37° C. with H2O2
[3] = test system: eosinophil peroxidase; assay: Ring-bromination of L-tyrosine by isolated EPO at physiological levels of halides; type: biochemical; conditions: molar excess in reaction mixtures
Protocol: Reactions were initiated by addition of oxidant (H2O2, HOBr, N-bromo or N,N-dibromo amine) and performed in sodium phosphate buffer (pH 7.0) at 37° C. for 60 min. Proteins oxidized in vitro were prepared for analysis by first precipitating and desalting them in a single-phase extraction mixture comprised of H2O:methanol:H2O-saturated diethyl ether (1:3:7, v:v:v) as described in Hazen, S. L., Hsu, F. F., Gaut, J. P., Crowler, J. R. and Heinecke, J. W. “Modification of Proteins and Lipids by Myeloperoxidase-Derived Oxidants” In: Methods of Enzymology, Edited by Lester Packer, Vol. 300, pp. 88-106. Academic Press, Inc., San Diego. 1999, followed by acid hydrolysis in methane sulfonic acid.
Quantitative determination of 3-bromotyrosine and 3,5-dibromotyrosine production from free L-tyrosine was performed utilizing reverse-phase HPLC with a C18 column (Beckman Ultrasphere, 5 μm resin, 4.6×250 mm) equilibrated with solvent A (0.1% trifluoroacetic acid, pH 2.5). […] 3-Bromotyrosine and 3,5-dibromotyrosine were monitored on a diode array detector and quantified at 280 nm employing a standard curve constructed with authentic synthetic standards.
The ability of isolated EPO and MPO to form 3-bromotyrosine and 3,5-dibromotyrosine in the presence of physiological levels of halides was evaluated. […]

Molecule	effect on 3-bromotyrosine production [1]	other results
[N-]=[N+]=[N-].[Na+] [NaN3]	inhibited	
catalase	inhibited	
N[C@@H](Cc1cc(Br)c(O)c(Br)c1)C(=O)O (single isomer, unassigned) [3,5-dibromotyrosine]		chemical stability of the product [2]: stable
NCCS(=O)(=O)O [taurine]		effect on ring-bromination by EPO [3]: augmented
